US20190112316A1, “THIAZOLO[3,2-A] PYRIMIDINONE AND OTHER HETEROBICYCLIC PYRIMIDINONE COMPOUNDS FOR USE IN MEDICAL THERAPY” (priority 2015, published 2019)
In brackets after ≈: the same amount, converted by molar mass.

Tested on: not listed separately
Test: Compound solubility in water
Type: physicochemical
Settings: not given

Compound	solubility [µg/mL]
CCC(C)c1ccc(NC(=O)c2cnc3n(c2=O)CCS3)cc1 (stereo not drawn)	0.3 (≈ 0.911 µM)
CCC(C)c1ccc(NC(=O)c2cnc3ccc(C)cn3c2=O)cc1 (stereo not drawn)	0.05 (≈ 0.149 µM)
O=C(Nc1ccc(-n2ccnc2)cc1)c1cnc2n(c1=O)CCS2	0.8 (≈ 2.36 µM)
CCCCc1ccc(NC(=O)c2cnc3n(c2=O)CCS3)cc1	0.2 (≈ 0.607 µM)
O=C(Nc1ccc(N2CCCCC2)cc1)c1cnc2n(c1=O)CCS2	4 (≈ 11.2 µM)
O=C(NCC1COc2ccccc2O1)c1cnc2sccn2c1=O (stereo not drawn)	22.6 (≈ 65.8 µM)
C[C@@H](NC(=O)c1cnc2n(c1=O)CCS2)c1ccccc1	36.8 (≈ 122 µM)
CN1Cc2ccc(NC(=O)c3cnc4n(c3=O)CCS4)cc2C1	32.4 (≈ 98.7 µM)
CCCCC1CCC(NC(=O)c2cnc3n(c2=O)C(C)CS3)CC1 (stereo not drawn)	1.3 (≈ 3.72 µM)
O=C(NC1CCOCC1)c1cnc2n(c1=O)CCS2	26.3 (≈ 93.5 µM)
C#Cc1ccc(NC(=O)c2cnc3sccn3c2=O)cc1	3.4 (≈ 11.5 µM)
Cc1csc2ncc(C(=O)Nc3ccc(C(C)C)cc3)c(=O)n12	0.5 (≈ 1.53 µM)
CCC(C)c1ccc(NC(=O)c2cnc3c(C)cccn3c2=O)cc1 (stereo not drawn)	0.5 (≈ 1.49 µM)
O=C(NC1Cc2ccccc2C1)c1cnc2sccn2c1=O	1.2 (≈ 3.85 µM)
CCc1ccc(NC(=O)c2cnc3n(c2=O)CCS3)cc1	5.1 (≈ 16.9 µM)

The remaining lines, values ahead:

solubility [µg/mL]	Compound
18.7 (≈ 62.5 µM)	Cc1cccc2ncc(C(=O)NC3CCC(C)CC3)c(=O)n12 (stereo not drawn)
9.3 (≈ 31.1 µM)	Cc1cccc2ncc(C(=O)NC3CCCCCC3)c(=O)n12
1.5 (≈ 4.95 µM)	C#Cc1ccc(NC(=O)c2cnc3cccc(C)n3c2=O)cc1
6.8 (≈ 21.3 µM)	Cc1cccc2ncc(C(=O)NC3CCc4ccccc43)c(=O)n12 (stereo not drawn)
10.6 (≈ 29.8 µM)	O=C(NC1CCC(c2ccccc2)CC1)c1cnc2n(c1=O)CCS2 (stereo not drawn)
13.9 (≈ 41.7 µM)	Cc1cccc2ncc(C(=O)NC3CCCc4ccccc43)c(=O)n12 (stereo not drawn)
1.4 (≈ 3.86 µM)	Cc1cccc2ncc(C(=O)Nc3ccc(N4CCCCC4)cc3)c(=O)n12
1 (≈ 2.98 µM)	CCC(C)c1ccc(NC(=O)c2cnc3cccc(C)n3c2=O)cc1 (stereo not drawn)
0.7 (≈ 2.08 µM)	Cc1cccc2ncc(C(=O)Nc3ccc4c(c3)OCCO4)c(=O)n12
30.7 (≈ 93.8 µM)	O=C(NC1CCc2ccccc2C1)c1cnc2n(c1=O)CCS2 (stereo not drawn)

Biological target: T1, glucocerebrosidase (Gcase) (Homo sapiens, UniProt P04062)
T1 construct: micellar solution containing 10 nM GCase and 100 nM saposin C (Enzo ALX-201-262-C050)
T1 sequence (P04062 40-536): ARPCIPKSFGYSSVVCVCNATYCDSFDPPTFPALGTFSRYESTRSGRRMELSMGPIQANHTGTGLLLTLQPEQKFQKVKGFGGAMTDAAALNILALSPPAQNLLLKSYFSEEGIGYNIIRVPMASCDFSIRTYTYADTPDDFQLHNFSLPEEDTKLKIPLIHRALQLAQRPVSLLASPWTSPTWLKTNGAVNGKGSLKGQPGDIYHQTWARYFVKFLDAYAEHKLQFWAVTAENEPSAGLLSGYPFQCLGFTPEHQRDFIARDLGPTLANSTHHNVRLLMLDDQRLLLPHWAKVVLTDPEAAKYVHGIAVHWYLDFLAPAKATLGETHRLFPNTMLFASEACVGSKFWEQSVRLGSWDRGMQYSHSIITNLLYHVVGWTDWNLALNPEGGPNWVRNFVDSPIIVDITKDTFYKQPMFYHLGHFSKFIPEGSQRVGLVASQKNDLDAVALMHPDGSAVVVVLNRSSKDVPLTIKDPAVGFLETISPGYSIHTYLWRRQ
Test: Glucocerebrosidase (Gcase) activation assay, 4-methylumbelliferyl-beta-D-glucopyranoside substrate, with saposin C
Type: biochemical
Settings: read-out: Percent Gcase Activation 0.1 μM Test Compound
Description: A 484 μL aliquot of a 1.0 mg/mL solution of phosphatidylserine (PS) (Sigma P7769) in chloroform was evaporated under a stream of nitrogen for 1 hour. The lipid film was dissolved over 4 minutes of vigorous vortexing in 40 mL of 176 mM K2HPO4/50 mM citric acid (pH 4.7) containing 7.5 μL of triton X-100, resulting in a mixed micellar preparation with a composition of 0.32 mM triton and 0.37 mol % PS. 4-Methylumbelliferyl-beta-D-glucopyranoside (ACROS-337025000) was dissolved in the micellar solution to a final concentration of 2 mM for use as the reaction substrate.
Test compounds were diluted to the desired concentrations with dimethylsulfoxide (DMSO) from 10 mM stocks, and 0.41 μL of the DMSO compound mixture was added to 100 μL of micellar solution containing 10 nM GCase and 100 nM saposin C (Enzo ALX-201-262-C050). Pre-incubation was allowed to occur for 30 minutes at room temperature, after which the reaction was initiated by combining 25 μL of substrate solution with 25 μL of compound/GCase/saposin mixture. The reaction proceeded for 15 minutes at room temperature and was stopped by adding 150 μL of 1M glycine, pH 12.5. The endpoint of the reaction was monitored by measuring fluorescence intensity (excitation: 365 nm; emission: 440 nm) on a SpectraMax i3 instrument (Molecular Devices). Test compounds were screened at 1.0 and 0.1 μM final concentration, and subsequent 8-point dose response curves were obtained using 3-fold dilutions from a maximum final concentration of 5 μM.

Compound	activation at 0.1 µM [%]
CCC(C)c1ccc(NC(=O)c2cnc3n(c2=O)CCS3)cc1 (stereo not drawn)	5 to 20
O=C(NC1CCOc2ccccc21)c1cnc2n(c1=O)CCS2 (stereo not drawn)	< 5
CCC(C)c1ccc(NC(=O)c2cnc3ccc(C)cn3c2=O)cc1 (stereo not drawn)	< 5
O=C(Nc1ccc(-n2ccnc2)cc1)c1cnc2n(c1=O)CCS2	< 5
CCCCc1ccc(NC(=O)c2cnc3n(c2=O)CCS3)cc1	5 to 20
O=C(Nc1ccc(N2CCCCC2)cc1)c1cnc2n(c1=O)CCS2	< 5
O=C(NCC1COc2ccccc2O1)c1cnc2sccn2c1=O (stereo not drawn)	< 5
C[C@@H](NC(=O)c1cnc2n(c1=O)CCS2)c1ccccc1	< 5
O=C(Nc1ccc(-c2cccs2)cc1)c1cnc2n(c1=O)CCS2	5 to 20
CN1Cc2ccc(NC(=O)c3cnc4n(c3=O)CCS4)cc2C1	< 5
CCCCC1CCC(NC(=O)c2cnc3n(c2=O)C(C)CS3)CC1 (stereo not drawn)	5 to 20
O=C(NC1CCOCC1)c1cnc2n(c1=O)CCS2	< 5
O=C(NCCOc1ccccc1)c1cnc2n(c1=O)CCS2	< 5
C#Cc1ccc(NC(=O)c2cnc3sccn3c2=O)cc1	5 to 20
Cc1csc2ncc(C(=O)Nc3ccc(C(C)C)cc3)c(=O)n12	5 to 20
O=C(NC1CC2CCC1C2)c1cnc2n(c1=O)CCS2 (stereo not drawn)	< 5
CCC(C)c1ccc(NC(=O)c2cnc3c(C)cccn3c2=O)cc1 (stereo not drawn)	< 5
O=C(NC1Cc2ccccc2C1)c1cnc2sccn2c1=O	5 to 20
CCc1ccc(NC(=O)c2cnc3sccn3c2=O)cc1	5 to 20
CCc1ccc(NC(=O)c2cnc3n(c2=O)CCS3)cc1	< 5
CCCCc1ccc(NC(=O)c2cnc3scc(C)n3c2=O)cc1	5 to 20

Results, then the molecule that gave them:

activation at 0.1 µM [%]	Compound
< 5	Cc1cccc2ncc(C(=O)NC3CCC(C)CC3)c(=O)n12 (stereo not drawn)
< 5	Cc1cccc2ncc(C(=O)NC3CCCCCC3)c(=O)n12
< 5	C#Cc1ccc(NC(=O)c2cnc3cccc(C)n3c2=O)cc1
< 5	Cc1cccc2ncc(C(=O)NCCOc3ccccc3)c(=O)n12
< 5	Cc1cccc2ncc(C(=O)NC3CCc4ccccc43)c(=O)n12 (stereo not drawn)
5 to 20	O=C(NC1CCC(c2ccccc2)CC1)c1cnc2n(c1=O)CCS2 (stereo not drawn)
5 to 20	Cc1cccc2ncc(C(=O)NC3CCCc4ccccc43)c(=O)n12 (stereo not drawn)
< 5	Cc1cccc2ncc(C(=O)Nc3ccc(N4CCCCC4)cc3)c(=O)n12
5 to 20	CCC(C)c1ccc(NC(=O)c2cnc3cccc(C)n3c2=O)cc1 (stereo not drawn)
< 5	Cc1cccc2ncc(C(=O)Nc3ccc4c(c3)OCCO4)c(=O)n12
< 5	Cc1ccn2c(=O)c(C(=O)NC3CCc4ccccc4C3)cnc2c1 (stereo not drawn)
< 5	O=C(NC1CCc2ccccc2C1)c1cnc2n(c1=O)CCS2 (stereo not drawn)
5 to 20	O=C(Nc1ccc(C2CCCCC2)cc1)c1cnc2n(c1=O)CCS2

Same assay, conditions: read-out: Percent Gcase Activation 1 μM Test Compound

Compound	activation at 1 µM [%]
CCC(C)c1ccc(NC(=O)c2cnc3n(c2=O)CCS3)cc1 (stereo not drawn)	> 20
O=C(NC1CCOc2ccccc21)c1cnc2n(c1=O)CCS2 (stereo not drawn)	5 to 20
CCC(C)c1ccc(NC(=O)c2cnc3ccc(C)cn3c2=O)cc1 (stereo not drawn)	5 to 20
O=C(Nc1ccc(-n2ccnc2)cc1)c1cnc2n(c1=O)CCS2	< 5
CCCCc1ccc(NC(=O)c2cnc3n(c2=O)CCS3)cc1	> 20
O=C(Nc1ccc(N2CCCCC2)cc1)c1cnc2n(c1=O)CCS2	< 5
O=C(NCC1COc2ccccc2O1)c1cnc2sccn2c1=O (stereo not drawn)	< 5
C[C@@H](NC(=O)c1cnc2n(c1=O)CCS2)c1ccccc1	< 5
O=C(Nc1ccc(-c2cccs2)cc1)c1cnc2n(c1=O)CCS2	5 to 20
CN1Cc2ccc(NC(=O)c3cnc4n(c3=O)CCS4)cc2C1	5 to 20
CCCCC1CCC(NC(=O)c2cnc3n(c2=O)C(C)CS3)CC1 (stereo not drawn)	> 20
O=C(NC1CCOCC1)c1cnc2n(c1=O)CCS2	5 to 20
O=C(NCCOc1ccccc1)c1cnc2n(c1=O)CCS2	5 to 20
C#Cc1ccc(NC(=O)c2cnc3sccn3c2=O)cc1	> 20
Cc1csc2ncc(C(=O)Nc3ccc(C(C)C)cc3)c(=O)n12	> 20
O=C(NC1CC2CCC1C2)c1cnc2n(c1=O)CCS2 (stereo not drawn)	< 5
CCC(C)c1ccc(NC(=O)c2cnc3c(C)cccn3c2=O)cc1 (stereo not drawn)	5 to 20
O=C(NC1Cc2ccccc2C1)c1cnc2sccn2c1=O	> 20
CCc1ccc(NC(=O)c2cnc3sccn3c2=O)cc1	> 20
CCc1ccc(NC(=O)c2cnc3n(c2=O)CCS3)cc1	> 20
CCCCc1ccc(NC(=O)c2cnc3scc(C)n3c2=O)cc1	> 20

Now from value to molecule:

activation at 1 µM [%]	Compound
> 20	Cc1cccc2ncc(C(=O)NC3CCC(C)CC3)c(=O)n12 (stereo not drawn)
> 20	Cc1cccc2ncc(C(=O)NC3CCCCCC3)c(=O)n12
5 to 20	C#Cc1ccc(NC(=O)c2cnc3cccc(C)n3c2=O)cc1
5 to 20	Cc1cccc2ncc(C(=O)NCCOc3ccccc3)c(=O)n12
> 20	Cc1cccc2ncc(C(=O)NC3CCc4ccccc43)c(=O)n12 (stereo not drawn)
> 20	O=C(NC1CCC(c2ccccc2)CC1)c1cnc2n(c1=O)CCS2 (stereo not drawn)
> 20	Cc1cccc2ncc(C(=O)NC3CCCc4ccccc43)c(=O)n12 (stereo not drawn)
< 5	Cc1cccc2ncc(C(=O)Nc3ccc(N4CCCCC4)cc3)c(=O)n12
> 20	CCC(C)c1ccc(NC(=O)c2cnc3cccc(C)n3c2=O)cc1 (stereo not drawn)
5 to 20	Cc1cccc2ncc(C(=O)Nc3ccc4c(c3)OCCO4)c(=O)n12
5 to 20	Cc1ccn2c(=O)c(C(=O)NC3CCc4ccccc4C3)cnc2c1 (stereo not drawn)
5 to 20	O=C(NC1CCc2ccccc2C1)c1cnc2n(c1=O)CCS2 (stereo not drawn)
> 20	O=C(Nc1ccc(C2CCCCC2)cc1)c1cnc2n(c1=O)CCS2
